Measured values taken from publication PMC11882969 (Nature Communications, 2025).
Values joined by “and” are separate entries in the source; they are usually repeats but may differ in a detail not shown here. Equal values may be shown once. Read-outs that look alike come from different tables or passages of the source.

How the values were obtained:
hCB1 = hCB1 (Homo sapiens, UniProt P21554); experiment: bioSensAll ebBRET signaling profiling, hCB1; type: cell-based; parameters: host or cells: HEK293SL cells, transient PEI transfection; conditions: for Gi1 hCB1 response: Gi1 biosensor; for Gi1 hCB1 / GoB hCB1: single replicate values, FigS6a; for EC50: read-out: EC50 [95% CI]; for Emax: normalized to CP-55,940
CB1 (rCB1) = CB1 (rCB1) (Rattus norvegicus, UniProt P20272); experiment: Radioligand competition binding, [3H]-CP-55,940, rat brain membranes
CB1 (rCB1), sequence (P20272 whole entry): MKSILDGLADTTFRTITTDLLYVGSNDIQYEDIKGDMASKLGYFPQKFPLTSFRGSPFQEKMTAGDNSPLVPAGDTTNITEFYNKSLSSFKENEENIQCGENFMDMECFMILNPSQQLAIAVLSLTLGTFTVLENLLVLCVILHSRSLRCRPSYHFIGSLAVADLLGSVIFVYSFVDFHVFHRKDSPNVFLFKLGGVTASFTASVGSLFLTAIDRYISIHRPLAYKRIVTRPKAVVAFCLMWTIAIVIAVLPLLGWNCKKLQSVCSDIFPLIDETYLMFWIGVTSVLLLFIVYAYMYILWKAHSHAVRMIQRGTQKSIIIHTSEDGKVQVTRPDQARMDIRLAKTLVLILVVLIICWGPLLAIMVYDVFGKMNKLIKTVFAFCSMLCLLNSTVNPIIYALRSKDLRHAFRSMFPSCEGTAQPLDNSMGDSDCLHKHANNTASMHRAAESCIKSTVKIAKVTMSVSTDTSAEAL

hCB1, sequence (P21554 whole entry): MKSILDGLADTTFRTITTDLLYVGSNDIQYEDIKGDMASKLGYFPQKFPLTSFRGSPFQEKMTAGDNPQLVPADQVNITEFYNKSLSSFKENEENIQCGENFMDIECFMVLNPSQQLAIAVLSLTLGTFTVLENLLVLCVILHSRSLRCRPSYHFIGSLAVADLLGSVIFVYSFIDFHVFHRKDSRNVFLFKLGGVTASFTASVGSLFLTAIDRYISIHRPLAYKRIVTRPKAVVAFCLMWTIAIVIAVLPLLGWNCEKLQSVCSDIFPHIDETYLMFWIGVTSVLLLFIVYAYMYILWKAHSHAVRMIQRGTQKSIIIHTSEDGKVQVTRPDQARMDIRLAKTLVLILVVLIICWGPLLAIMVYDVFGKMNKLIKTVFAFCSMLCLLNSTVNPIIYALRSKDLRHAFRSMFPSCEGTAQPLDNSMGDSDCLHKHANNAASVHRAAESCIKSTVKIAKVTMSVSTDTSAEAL

## Cc1cc(C(=O)NC(c2ccccc2)c2ccco2)nn1-c1cccc(C(F)(F)F)c1 (stereo not drawn) [‘1081]
hCB1; Log [Compound] (M) -4.22186
  Gi1 hCB1 response: 74.944
  Gi1 hCB1: 52.0891
  GoB hCB1: 46.0629
hCB1; Log [Compound] (M) -4.63927
  Gi1 hCB1 response: 67.9833
  Gi1 hCB1: 50.1467
  GoB hCB1: 47.4116
hCB1; Log [Compound] (M) -5.05788
  Gi1 hCB1 response: 54.8454
  Gi1 hCB1: 48.6204
  GoB hCB1: 38.1682
hCB1; Log [Compound] (M) -5.47381
  Gi1 hCB1 response: 47.9296
  Gi1 hCB1: 43.0088
  GoB hCB1: 38.8336
hCB1; Log [Compound] (M) -5.89285
  Gi1 hCB1 response: 64.2009
  Gi1 hCB1: 42.6234
  GoB hCB1: 33.6364
hCB1; Log [Compound] (M) -6.31878
  Gi1 hCB1 response: 42.1551
  Gi1 hCB1: 36.4105
  GoB hCB1: 34.6075
hCB1; Log [Compound] (M) -6.72585
  Gi1 hCB1 response: 23.6233
  Gi1 hCB1: 32.0322
  GoB hCB1: 26.2812
hCB1; Log [Compound] (M) -7.14267
  Gi1 hCB1 response: 32.464
  Gi1 hCB1: 17.1706
  GoB hCB1: 21.1739
hCB1; Log [Compound] (M) -7.55284
  Gi1 hCB1 response: 4.129
  Gi1 hCB1: 12.4531
  GoB hCB1: 14.1424
hCB1; Log [Compound] (M) -8
  Gi1 hCB1 response: -0.3248
  Gi1 hCB1: 6.533
  GoB hCB1: 4.935
hCB1; Log [Compound] (M) -8.22186
  Gi1 hCB1 response: 3.077
  Gi1 hCB1: 6.209
  GoB hCB1: 1.626
hCB1; Log [Compound] (M) -8.39794
  Gi1 hCB1 response: 0.4809
  Gi1 hCB1: 4.544
  GoB hCB1: 0.2593
hCB1; Log [Compound] (M) -8.68787
  Gi1 hCB1 response: 1.913
  Gi1 hCB1: 3.434
  GoB hCB1: -1.683
hCB1; Log [Compound] (M) -9.15521
  Gi1 hCB1 response: -3.123
  Gi1 hCB1: 3.357
  GoB hCB1: -3.445
hCB1; Log [Compound] (M) -9.61989
  Gi1 hCB1 response: -0.5486
  Gi1 hCB1: 1.492
  GoB hCB1: -0.6039
hCB1; Log [Compound] (M) -10.5529
  Gi1 hCB1 response: 3.637
  Gi1 hCB1: 3.496
  GoB hCB1: -5.459
hCB1; Log [Compound] (M) -11.0177
  Gi1 hCB1 response: -17.939
  Gi1 hCB1: 1.214
  GoB hCB1: -3.661
hCB1; Log [Compound] (M) -11.4949
  Gi1 hCB1 response: 0.01089
  Gi1 hCB1: 1.523
  GoB hCB1: 0.9786
hCB1; Log [Compound] (M) -11.9208
  Gi1 hCB1 response: -4.7116
  Gi1 hCB1: 2.833
  GoB hCB1: 3.047
hCB1; Log [Compound] (M) -12.3979
  Gi1 hCB1 response: -3.011
  Gi1 hCB1: 0.3511
  GoB hCB1: -1.071
hCB1; Log [Compound] (M) -13, individual replicate values
  Gi1 hCB1 response: 10.3511 and -8.673
hCB1; Log [Compound] (M) -10.0969
  Gi1 hCB1: 1.199
  GoB hCB1: -2.51
hCB1; Log [Compound] (M) -12.8861
  Gi1 hCB1: 2.432
  GoB hCB1: -2.402
hCB1; Log [Compound] (M) -13
  Gi1 hCB1: 2.448 and 3.003
  GoB hCB1: -0.01046 and 0.7448
hCB1; hCB1 Gi1
  pEC50 [95% CI]: 6.8 [6.7 – 6.9]
  EC50: 0.15 µM
hCB1; hCB1 GoB
  pEC50 [95% CI]: 7.0 [6.8 – 7.3]
  EC50: 0.0917 µM
hCB1; hCB1 Gz
  pEC50 [95% CI]: 6.7 [6.2 – 7.1]
  EC50: 0.225 µM
hCB1; read-out: Emax [95% CI], hCB1 Gi1
  Emax: 49%
hCB1; read-out: Emax [95% CI], hCB1 GoB
  Emax: 45%
hCB1; read-out: Emax [95% CI], hCB1 Gz
  Emax: 72%
CB1 (rCB1); rCB1
  pKi [95% CI]: 6.9 [6.8 – 7.1]
CB1 (rCB1); read-out: Ki [95% CI], rCB1, [3H]-CP-55,940
  Ki: 0.116 µM
